Measurements from patent US12202942B2, “Functionalized silicone polymers and methods of making and using the same” (Wilmar Trading Pte. Ltd., priority 2018, dated 2025).

Assays:
Assay type in all cases: physicochemical
[1] = Brookfield viscosity of grafted siloxane derivatives
Experimental: (§1) The reactions were extremely exothermic and needed to be cooled by a dry ice bath once the temperature approached 30° C. For these reactions, an excess amount of terminal olefin substrate was used based on the equivalent weight (eqW) of hydrosiloxane. Reaction progress was monitored by FTIR as both the hydrosilane absorbance (2150 cm-1) and terminal olefin absorbance (1640 cm-1) disappeared while the carbonyl absorbance remained constant (1735 cm-1). Once the reaction was judged complete, the unreacted olefin starting material was removed by vacuum distillation. The resulting organofunctional siloxane oligomers were analyzed without further purification by 1H-NMR spectroscopy.
Into either a 50 or 100 ml three-necked, round-bottomed flask equipped with a magnetic stirrer, a thermocouple with a J-Kem controller, a heating mantle and a short path distillation apparatus with a nitrogen inlet was added the uC10 derivative and the hydrosilane oligomer. In most cases the reaction was run neat, however the uC10MEE-16-based reactions were two phase so that isopropanol (IPOH) was added to compatiblize the reactants. Once the catalyst was added (1 drop) at ambient temperatures, the temperature was carefully monitored. The reaction was gentle warmed by an air gun until about 30° C. when heating was discontinued and a dry ice bath was used to moderate the vigorous exotherm. Once the temperature had stabilized, then the heating mantle was used to hold the reaction temperature at 60° C. for the next few hours. The reaction's progress was easily monitored by FTIR as both the hydrosilane absorbance (2150 cm^−1) and the terminal olefin's absorbance (1640 cm^−1) disappeared while the carbonyl absorbance remained constant (1735 cm^−1). When the reactions were judged complete, they were typically subjected to reduced pressure to remove any excess reagents or solvents. The products were transferred into 2 oz glass bottles and remained liquids except for the uC16MEE-16-based materials that solidified. […]

[2] = Surface tension of grafted siloxane derivatives
Experimental: as §1

[3] = Solubility in organic solvents

COC(=O)CCCCCCCCC[Si](C)(O[Si](C)(C)C)O[Si](C)(C)C [Compound 6]
Viscosity (25° C.) [1]: 7.1 | Surface Tension (20° C.) [2]: 22.6 mN/m | Solubility in polar organic solvents (in words) ([3]; polar organic solvents): significantly more soluble | Solubility (wt %) MEK ([3]; solvent MEK): >50 wt % | Solubility (wt %) Acetone ([3]; solvent acetone): >50 wt % | Solubility (wt %) Acetonitrile ([3]; solvent acetonitrile): 13 wt % | Solubility (wt %) Ethylene Glycol ([3]; solvent ethylene glycol): 6 wt % | Solubility (wt %) Heptanes ([3]; solvent heptanes): >50 wt % | Solubility (wt %) Methanol ([3]; solvent methanol): 17 wt %

COCCOCCOCCOC(=O)CCCCCCCCC[Si](C)(O[Si](C)(C)C)O[Si](C)(C)C [Compound 7]
Viscosity (25° C.) [1]: 17 | Surface Tension (20° C.) [2]: 21.4 mN/m

C[Si](C)(C)O[Si](C)(CCCCCCCCCC(=O)OCCC(F)(F)C(F)(F)C(F)(F)C(F)(F)F)O[Si](C)(C)C [Compound 9]
Viscosity (25° C.) [1]: 16 | Surface Tension (20° C.) [2]: 20.8 mN/m
